Assay results reported in the PolyMetriX glass transition set.
± gives the standard deviation of the reports.

glass transition temperature [°C]	Compound
312.00	*Oc1c(F)c(F)c(Oc2c(F)c(F)c3c(c2F)C(=O)N(c2ccc(-c4ccc(N5C(=O)c6c(F)c(*)c(F)c(F)c6C5=O)cc4C(F)(F)F)c(C(F)(F)F)c2)C3=O)c(F)c1F (repeat unit)
285.40	*C(=O)Nc1ccc2ccccc2c1-c1c(NC(=O)c2ccc3c(c2)C(=O)N(c2ccc(Cc4ccc(N5C(=O)c6ccc(*)cc6C5=O)cc4)cc2)C3=O)ccc2ccccc12 (repeat unit)
354.00	*c1ccc(Cc2ccc(-n3c(=O)c4ccc5c(=O)n(*)c(=O)c5c4c3=O)c(C)c2)cc1C (repeat unit)
261.00	*Oc1ccc2c(c1)C(=O)N(c1ccc(Oc3c(C)cc(Oc4ccc(N5C(=O)c6ccc(*)cc6C5=O)cc4)c(C)c3C)cc1)C2=O (repeat unit)
240.00	*Oc1ccc2c(c1)C(=O)N(c1ccc(Oc3ccc(Oc4ccc(N5C(=O)c6ccc(*)cc6C5=O)cc4)cc3C(C)(C)C)cc1)C2=O (repeat unit)
135.00	*Oc1ccc(C(c2ccc(Oc3cccc4c3C(=O)N(CCCCCCCCN3C(=O)c5cccc(*)c5C3=O)C4=O)cc2)(C(F)(F)F)C(F)(F)F)cc1 (repeat unit)

Remark: another data set of the same source

Compound	glass transition temperature [°C]
*/C=C/c1ccc(/C=C/[Si](C)(CCC(F)(F)F)c2cccc([Si](*)(C)CCC(F)(F)F)c2)cc1 (repeat unit)	23.40
*/C=C/CC* (repeat unit) [1,4-polybutadiene]	-91.00 ± 5
*C(F)(F)C1(F)C(F)(F)C(*)(F)C(F)(F)C1(F)F (repeat unit) [Perfluoropolymer 3]	117 ± 0.6
*c1ccc(*)cc1 (repeat unit) [Poly(1,4-phenylene)]	278.18 ± 19
*CC(*)(C)C(=O)OCC (repeat unit) [Poly(1-(Diethylamino)ethyl methacrylate)]	20 ± 27
*/C=C/CCC* (repeat unit) [Poly(1-pentenylene)]	-100.08 ± 7
*CC(*)c1ccc(Cl)cc1Cl (repeat unit) [Poly(2,4-dichloro styrene) ]	133 ± 2.6
*CC(*)c1ccc(C)cc1C (repeat unit) [Poly(2,4-dimethyl styrene) ]	112 ± 0.6
*CC(*)c1ccccc1Cl (repeat unit) [Poly(2-chlorostyrene)]	118.92 ± 2.1
*CC(*)(C)C(=O)OCCO (repeat unit) [Poly(2-hydroxyethyl methacrylate)]	84.03 ± 10
*CC(*)(C)C(=O)OCC(C)O (repeat unit) [Poly(2-hydroxypropyl methacrylate)]	75.4 ± 1.9
*CC(*)(C)CC (repeat unit) [Poly(2-methylbutene)]	-11.58 ± 9.3
*CC(*)(C)C(=O)OCCc1ccccc1 (repeat unit) [Poly(2-phenylethyl methacrylate)]	37.42 ± 16
*CC(*)c1ccc(C)c(C)c1 (repeat unit) [Poly(3,4-dimethyl styrene) ]	111 ± 2.4
*CC(*)c1ccc(F)cc1 (repeat unit) [Poly(4-fluorostyrene)]	104 ± 4.9
*CC(*)c1ccc(C(=O)c2ccc(C)cc2)cc1 (repeat unit) [Poly(4-p-toluoylstyrene)]	98.92 ± 0.1
*CC(*)C(=O)Nc1ccccc1 (repeat unit) [Poly(N-phenyl acrylamide)]	155.92 ± 5.8
*CC(*)n1c2ccccc2c2ccccc21 (repeat unit) [Poly(N-vinyl carbazole)]	150 ± 44
*CC(*)C(N)=O (repeat unit) [Poly(acrylamide)]	178.92 ± 20
*CC(*)C(=O)O (repeat unit) [Poly(acrylic acid)]	105 ± 7.3
*CCCCOC(=O)c1ccc(C(=O)O*)cc1 (repeat unit) [Poly(butylene terephthalate)]	44.12 ± 6

Compound	glass transition temperature [°C]
*CC(*)C(=O)OC1CCCCC1 (repeat unit) [Poly(cyclohexyl acrylate)]	20.42 ± 6.5
*CCCCCCCCCC(=O)N* (repeat unit) [Poly(decano-10-lactam)]	42.42 ± 0.8
*CC(CCl)O* (repeat unit) [Poly(epichlorohydrin)]	-22.22 ± 1.5
*CC(*)(Cl)C(=O)OCC (repeat unit) [Poly(ethyl a-chloroacrylate) ]	92 ± 4.8
*CC(*)OCC (repeat unit) [Poly(ethyl vinyl ether)]	-26.58 ± 9.8
*CCOC(=O)CCC(=O)O* (repeat unit) [Poly(ethylene succinate)]	-8.63 ± 3.5
*CC(*)CCCCCCC (repeat unit) [Poly(heptylethylene)]	-47.58 ± 0.8
*CCCCCCNC(=O)CCCCC(=O)N* (repeat unit) [Poly(hexamethylene adipamide)]	54.53 ± 5.2
*CCCCCCNC(=O)CCCCCCCC(=O)N* (repeat unit) [Poly(hexamethylene azelamide)]	50.58 ± 12
*CCCCCCNC(=O)c1cccc(C(=O)N*)c1 (repeat unit) [Poly(hexamethylene isophthalamide) ]	129 ± 5.4
*CCCCCCNC(=O)CCCCCCCCC(=O)N* (repeat unit) [Poly(hexamethylene sebacamide) ]	40 ± 4.1
*CC(*)(C#N)C(=O)OCCCCCC (repeat unit) [Poly(hexyl cyanoacrylate)]	85.92 ± 0.1
*CC(*)OCCCCCC (repeat unit) [Poly(hexyl vinyl ether)]	-69.58 ± 5.8
*CCCCCCNC(=O)CCCCCCCCCCC(=O)N* (repeat unit) [Poly(iminohexamethyleneiminododecanedioyl)]	45.92 ± 0.1
*CC(*)(C)C (repeat unit) [Poly(isobutene)]	-74 ± 3.6
*CC(*)C(=O)OC (repeat unit) [Poly(methyl acrylate) ]	9 ± 2
*CC(*)OC (repeat unit) [Poly(methyl vinyl ether)]	-26.97 ± 3.8
*CC(*)C(=O)OCCCCCCCCC (repeat unit) [Poly(n-nonyl acrylate) ]	-60 ± 17
*CC(*)C(=O)OCCCCCCCC (repeat unit) [Poly(n-octyl acrylate) ]	-65 ± 0.6
*CC(*)C(=O)OCCCCCCCCCCCCCCCCCC (repeat unit) [Poly(octadecyl acrylate)]	-2.33 ± 57
*CC(*)c1ccc(C(=O)OC)cc1 (repeat unit) [Poly(p-methoxycarbonyl styrene) ]	113 ± 5.6

Compound	glass transition temperature [°C]
*OC(C)COC(*)=O (repeat unit) [Poly(propylene carbonate)]	35.73 ± 1.6
*CC(*)CCC (repeat unit) [Poly(propylethylene)]	-35 ± 46
*c1ccc(*)[nH]1 (repeat unit) [Poly(pyrrole)]	86.42 ± 23
*CC(*)(C)C(=O)OC(C)CC (repeat unit) [Poly(sec-butyl methacrylate)]	57 ± 2.6
*CCCCOC(=O)CCCCC(=O)O* (repeat unit) [Poly(tetramethylene adipate) ]	-68 ± 2.1
*CCCOC(=O)c1ccc(C(=O)O*)cc1 (repeat unit) [Poly(trimethylene terephthalate)]	52.92 ± 1.3
*CC(*)F (repeat unit) [Poly(vinyl fluoride)]	33.92 ± 10
*CC(*)OC(C)C (repeat unit) [Poly(vinyl isopropyl ether) ]	-4 ± 2.3
*CC(*)SC (repeat unit) [Poly(vinyl methyl sulfide) ]	-1 ± 1.2
*CC(*)OCCCCCCCCCC (repeat unit) [Poly(vinyl n-decyl ether) ]	-76 ± 8.5
*CC(*)OCCCCC (repeat unit) [Poly(vinyl n-pentyl ether)]	-66 ± 0.6
*CC(*)(Cl)Cl (repeat unit) [Poly(vinylidene chloride)]	-9.83 ± 9.4
*Oc1ccc(C(c2ccc(OC(*)=O)cc2)C(C)C)cc1 (repeat unit) [Poly[1,1-(2-methyl propane) bis(4-phenyl)carbonate]]	149 ± 0.6
*Oc1ccc(C(C)(CCC)c2ccc(OC(*)=O)cc2)cc1 (repeat unit) [Poly[2,2-pentane bis(4-phenyl)carbonate]]	137 ± 0.6
*Oc1ccc(C(CCC)(CCC)c2ccc(OC(*)=O)cc2)cc1 (repeat unit) [Poly[4,4-heptane bis(4-phenyl)carbonate]]	148 ± 0.6
*CC(*)C(F)(F)C(F)(F)F (repeat unit) [Poly[(pentafluoroethyl)ethylene] ]	41 ± 0.6
*CCCCCCCCO* (repeat unit) [Polyoxyoctamethylene ]	-70 ± 34
*CC(*)c1ccccc1 (repeat unit) [atactic polystyrene]	95.96 ± 28
*CC(*)(C)C(=O)OCCCCCC (repeat unit) [poly(hexyl methacrylate)]	-6.6 ± 7.2
*CC(*)(C)C(=O)OC (repeat unit) [poly(methyl methacrylate)]	108.92 ± 15
*CCCCCCCCCCCCCCC(=O)O* (repeat unit) [poly(pentadecalactone)]	-24.62 ± 3.6
